Data from patent US20250145585A1, “HETEROCYCLIC INHIBITORS OF IGF-1R FOR TREATMENT OF DISEASE” (HORIZON THERAPEUTICS IRELAND DAC, priority 2023, published 2025).
pIC50: −log10 of the molar value.

These molecules were tested against T1, IGF-1R (Homo sapiens, UniProt P08069) (assay: Example B-2: IGF-1R Assay (PathHunter cell lines, EC80 agonist challenge, chemiluminescent detection)). Details: PathHunter cells, compound 60 minutes at 37° C., EC80 agonist 3 hours; read-out: IC50, Biological Activity against IGF-1R (Table B2).
T1 construct: expressed in transfected cells
T1 sequence (P08069 31-1367): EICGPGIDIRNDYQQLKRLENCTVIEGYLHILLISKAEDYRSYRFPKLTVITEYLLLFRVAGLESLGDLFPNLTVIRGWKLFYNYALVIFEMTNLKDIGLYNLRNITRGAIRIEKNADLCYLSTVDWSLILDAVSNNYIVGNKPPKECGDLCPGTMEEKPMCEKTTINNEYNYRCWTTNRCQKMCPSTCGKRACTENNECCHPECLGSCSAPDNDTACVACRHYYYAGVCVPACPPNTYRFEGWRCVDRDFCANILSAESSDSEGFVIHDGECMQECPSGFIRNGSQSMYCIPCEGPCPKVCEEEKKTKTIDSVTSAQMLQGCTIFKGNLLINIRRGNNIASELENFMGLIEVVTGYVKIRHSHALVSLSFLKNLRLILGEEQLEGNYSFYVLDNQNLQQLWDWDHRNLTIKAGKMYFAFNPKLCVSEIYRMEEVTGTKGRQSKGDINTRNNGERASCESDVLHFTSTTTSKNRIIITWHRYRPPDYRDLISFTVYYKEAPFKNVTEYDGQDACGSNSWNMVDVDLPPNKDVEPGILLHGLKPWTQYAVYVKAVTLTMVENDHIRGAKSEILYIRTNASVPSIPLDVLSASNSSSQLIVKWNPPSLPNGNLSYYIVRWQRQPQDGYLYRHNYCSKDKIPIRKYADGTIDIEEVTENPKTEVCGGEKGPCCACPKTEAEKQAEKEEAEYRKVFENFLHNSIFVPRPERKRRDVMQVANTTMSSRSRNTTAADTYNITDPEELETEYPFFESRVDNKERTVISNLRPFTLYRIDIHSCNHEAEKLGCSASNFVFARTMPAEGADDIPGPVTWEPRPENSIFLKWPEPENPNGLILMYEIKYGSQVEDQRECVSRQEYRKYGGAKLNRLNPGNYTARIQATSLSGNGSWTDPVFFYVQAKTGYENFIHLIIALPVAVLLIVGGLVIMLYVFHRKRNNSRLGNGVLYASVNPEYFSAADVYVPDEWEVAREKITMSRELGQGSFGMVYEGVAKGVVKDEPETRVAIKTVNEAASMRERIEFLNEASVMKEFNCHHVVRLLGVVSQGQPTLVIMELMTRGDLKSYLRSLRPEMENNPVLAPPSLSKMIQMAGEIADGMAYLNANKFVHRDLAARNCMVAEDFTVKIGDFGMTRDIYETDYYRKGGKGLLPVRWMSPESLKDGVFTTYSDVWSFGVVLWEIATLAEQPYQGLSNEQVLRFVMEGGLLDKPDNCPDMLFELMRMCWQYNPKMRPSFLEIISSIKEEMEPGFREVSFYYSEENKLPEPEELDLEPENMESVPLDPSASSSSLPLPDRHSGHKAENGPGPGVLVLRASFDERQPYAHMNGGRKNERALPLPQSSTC
Type: cell-based
How it was run: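 PathHunter cells were pre-incubated with compound for 60 min at 37° C (1% vehicle), then challenged with EC80 agonist for 3 h at room temperature. Chemiluminescent detection after 1 h gave % inhibition relative to EC80 and vehicle controls, from which IC50 was derived.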

| Compound | pIC50 |
| --- | --- |
| CC1(C)C(=O)N(c2ccc(C(C)(C)C(F)(F)F)cc2)C(=O)N1Cc1ccnc2c1CC(=O)N2 [Compound 57, 5,5-dimethyl-1-((2-oxo-2,3-dihydro-1H-pyrrolo[2,3-b]pyridin-4-yl)methyl)-3-(4-(1,1,1-trifluoro-2-methylpropan-2-yl)phenyl)imidazolidine-2,4-dione] | ≥ 6.30 |
| COC[C@@H](C)Nc1cc(CN2C(=O)N(c3cc(C(C)(C)C)nn3C)C(=O)C2(C)C)ccn1 [Compound 259, (R)-3-(3-(tert-butyl)-1-methyl-1H-pyrazol-5-yl)-1-((2-((1-methoxypropan-2-yl)amino)pyridin-4-yl)methyl)-5,5-dimethylimidazolidine-2,4-dione] | ≥ 6.30 |
| CC1(C)C(=O)N(c2ccc3c(c2)N(S(C)(=O)=O)CC32CC2)C(=O)N1Cc1ccnc(NC2CCOCC2)c1 [Compound 212, 5,5-dimethyl-3-(1′-(methylsulfonyl)spiro[cyclopropane-1,3′-indolin]-6′-yl)-1-((2-((tetrahydro-2H-pyran-4-yl)amino)pyridin-4-yl)methyl)imidazolidine-2,4-dione] | ≥ 6.30 |
| C[C@@H](CC#N)Nc1cc(CN2C(=O)N(c3ccc4c(c3)N(S(C)(=O)=O)CC43CC3)C(=O)C2(C)C)ccn1 [Compound 230, (S)-3-((4-((5,5-dimethyl-3-(1′-(methylsulfonyl)spiro[cyclopropane-1,3′-indolin]-6′-yl)-2,4-dioxoimidazolidin-1-yl)methyl)pyridin-2-yl)amino)butanenitrile] | ≥ 6.30 |
| CC1(C)C(=O)N(c2ccc(S(=O)(=O)C(F)(F)F)cc2)C(=O)N1Cc1ccnc(NC2CCc3cn[nH]c3C2)c1 (centres unmarked) [Compound 325, 5,5-dimethyl-1-((2-((4,5,6,7-tetrahydro-1H-indazol-6-yl)amino)pyridin-4-yl)methyl)-3-(4-((trifluoromethyl)sulfonyl)phenyl) imidazolidine-2,4-dione] | ≥ 6.30 |
| CC1(C)CN(S(C)(=O)=O)c2cc(N3C(=O)N(Cc4ccnc(N[C@H]5CCOC[C@@H]5F)c4)C(C)(C)C3=O)ccc21 [Compound 241, 3-(3,3-dimethyl-1-(methylsulfonyl)indolin-6-yl)-1-((2-(((3R,4S)-3-fluorotetrahydro-2H-pyran-4-yl)amino)pyridin-4-yl)methyl)-5,5-dimethylimidazolidine-2,4-dione] | ≥ 6.30 |
| CC1(C)COc2cc(N3C(=O)N(Cc4ccnc5c4CC(=O)N5)C(C)(C)C3=O)ccc21 [Compound 35, 3-(3,3-dimethyl-2,3-dihydrobenzofuran-6-yl)-5,5-dimethyl-1-((2-oxo-2,3-dihydro-1H-pyrrolo[2,3-b]pyridin-4-yl)methyl)imidazolidine-2,4-dione] | ≥ 6.30 |
| CC(C)(C)c1ccc(N2C(=O)C(C)(C)N(Cc3ccnc4[nH]ccc34)C2=S)cc1 [Compound 407, 1-((1H-pyrrolo[2,3-b]pyridin-4-yl)methyl)-3-(4-(tert-butyl)phenyl)-5,5-dimethyl-2-thioxoimidazolidin-4-one] | 5.70 to 6.30 |
| CC(C)Nc1cc(CN2C(=O)N(c3ccc4c(c3)N(S(C)(=O)=O)CC4(C)C)C(=O)C2(C)C)ccn1 [Compound 194, 3-(3,3-dimethyl-1-(methylsulfonyl)indolin-6-yl)-1-((2-(isopropylamino)pyridin-4-yl)methyl)-5,5-dimethylimidazolidine-2,4-dione] | ≥ 6.30 |
| CC1(c2ccc(N3C(=O)N(Cc4ccnc5c4CC(=O)N5)C(C)(C)C3=O)cc2)CC1 [Compound 48, 5,5-dimethyl-3-(4-(1-methylcyclopropyl)phenyl)-1-((2-oxo-2,3-dihydro-1H-pyrrolo[2,3-b]pyridin-4-yl)methyl)imidazolidine-2,4-dione] | ≥ 6.30 |
| CC(Nc1cc(CN2C(=O)N(c3ccc(C4(C(F)(F)F)CC4)cc3)C(=O)C2(C)C)ccn1)c1cnn(C)c1 (centres unmarked) [Compound 167, 5,5-dimethyl-1-((2-((1-(1-methyl-1H-pyrazol-4-yl)ethyl)amino)pyridin-4-yl)methyl)-3-(4-(1-(trifluoromethyl)cyclopropyl)phenyl) imidazolidine-2,4-dione] | ≥ 6.30 |
